Data: patent publication US8722910B2, “Diyne compositions” (Evolva AG, priority 2009, dated 2014)

How the values were obtained:
Trichophyton tonsurans = experiment: In vitro antifungal activity vs. dermatophytes (MIC/MFC); assay type: cell-based; settings: Trichophyton tonsurans (n = 15)
Cytochrome P450 3A = experiment: Inhibition of cytochrome P450 enzymes; assay type: in vitro ADME; settings: 10 μM
Procedure: (§1) Peak areas corresponding to the metabolite of each substrate were recorded. The percent of control activity was then calculated by comparing the peak area obtained in the presence of the diyne potassium salt and in the absence.

Cytochrome P450 2C8 = Cytochrome P450 2C8 (Homo sapiens, UniProt P10632); experiment: Inhibition of cytochrome P450 enzymes; assay type: in vitro ADME; settings: substrate paclitaxel
Cytochrome P450 2C8, sequence (P10632 whole entry): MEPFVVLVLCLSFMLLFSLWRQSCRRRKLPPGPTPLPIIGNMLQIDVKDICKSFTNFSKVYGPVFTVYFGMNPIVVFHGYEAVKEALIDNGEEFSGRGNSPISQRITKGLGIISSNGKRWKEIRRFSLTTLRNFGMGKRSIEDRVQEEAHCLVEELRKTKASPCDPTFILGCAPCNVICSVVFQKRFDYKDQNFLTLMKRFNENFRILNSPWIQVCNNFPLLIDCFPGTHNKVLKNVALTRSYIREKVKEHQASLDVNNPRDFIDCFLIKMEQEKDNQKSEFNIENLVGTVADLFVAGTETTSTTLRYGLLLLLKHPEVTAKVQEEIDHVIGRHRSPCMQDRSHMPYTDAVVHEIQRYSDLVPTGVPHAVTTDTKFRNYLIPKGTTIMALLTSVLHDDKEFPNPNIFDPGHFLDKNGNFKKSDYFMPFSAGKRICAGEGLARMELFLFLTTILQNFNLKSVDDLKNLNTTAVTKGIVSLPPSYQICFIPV
Procedure: as §1

SMILES	MIC (Trichophyton tonsurans; 96 h, 35° C., 4 days) [ng/mL]	MFC (Trichophyton tonsurans) [ng/mL]	MIC90/MIC range 48 h (Trichophyton tonsurans; MIC90, 48 h) [ng/mL]	% control at 10 μM (Cytochrome P450 3A; substrate midazolam) [%]	% control at 10 μM (Cytochrome P450 3A; substrate testosterone) [%]	IC50 (Cytochrome P450 2C8) [µM]	% control at 10 μM (Cytochrome P450 2C8; 10 μM) [%]
O=C(O)CCCCCCC/C=C\C#CC#Cc1ccco1 [Compound III″]	< 0.06	< 0.06	<0.06				
O=C([O-])CCCCCCC/C=C\C#CC#Cc1ccco1.[K+] [Compound IV″, potassium (Z)-14-(furan-2-yl)tetradeca-9-en-11,13-diynoate]				85	90	> 100	84
